Legend:
Assay type in all cases: in vivo
[1] = test system: winter barley (Hordeum vulgare); experiment: Test B postemergence plant response
Outline: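 Plants grown in peat/vermiculite medium were sprayed postemergence at 2–18 cm height (1- to 4-leaf stage). After 13–15 days in the greenhouse, response was rated visually against untreated controls on a 0–100 scale (0 no effect, 100 complete control).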

[2] = test system: large crabgrass (Digitaria sanguinalis); experiment: Test A pre-/postemergence plant response
Outline: (§1)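 Seeds planted in loam soil/sand blend; test chemicals in non-phytotoxic solvent mixture with surfactant applied as directed soil spray preemergence and, concurrently, postemergence to plants 2–10 cm tall at one- to two-leaf stage. Greenhouse ~10 days; visual injury vs untreated controls, 0 (no effect) to 100 (complete control).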

[3] = test system: velvetleaf (Abutilon theophrasti); experiment: Test A pre-/postemergence plant response
Outline: as §1

[4] = test system: morningglory (Ipomoea spp.); experiment: Test A pre-/postemergence plant response
Outline: as §1

[5] = test system: giant foxtail (Setaria faberii); experiment: Test A pre-/postemergence plant response
Outline: as §1

corn (Zea mays) = experiment: Test A pre-/postemergence plant response
Outline: as §1

[6] = test system: barnyardgrass (Echinochloa crus-galli); experiment: Test A pre-/postemergence plant response
Outline: as §1

[7] = test system: wheat (Triticum aestivum); experiment: Test A pre-/postemergence plant response
Outline: as §1

[8] = test system: pigweed (Amaranthus retroflexus); experiment: Test A pre-/postemergence plant response
Outline: as §1

[9] = test system: umbrella sedge (Cyperus difformis); experiment: Test B flooded paddy test
Outline: (§2)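 Greenhouse-held for 13 to 15 days, treated pots were compared visually with controls and scored 0–100 (0, no effect). Treatment had been made into paddy water kept at 3 cm above the soil, with plants at the 2-leaf stage.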

[10] = test system: ducksalad (Heteranthera limosa); experiment: Test B flooded paddy test
Outline: as §2

[11] = test system: barnyardgrass (Echinochloa crus-galli); experiment: Test B flooded paddy test
Outline: as §2

rice (Oryza sativa) = experiment: Test B flooded paddy test
Outline: as §2

[12] = Postemergence, 125 g ai/ha, 0 to 100 scale where 0 is no effect and 100 is complete control
[13] = Postemergence, 500 g ai/ha, 0 to 100 scale, 0 = no effect, 100 = complete control, approx. ten days
[14] = Preemergence, 125 g ai/ha, 0 to 100 scale, 0 = no effect, 100 = complete control
[15] = Preemergence, 500 g ai/ha, visual injury, 0 to 100 scale (0 no effect, 100 complete control), approx. ten days
[16] = 250 g ai/ha, flooded paddy test, visual rating on 0 to 100 scale (0 no effect, 100 complete control) after 13 to 15 days
[17] = Flood (flooded paddy test), 62 g ai/ha, scale of 0 to 100 where 0 is no effect and 100 is complete control, 13 to 15 days

## CCCCn1c(-c2cc(F)cc(F)c2)ncc(C(=O)C2=C(O)CCCC2=O)c1=O [Compound 121]
[1]; 31 g ai/ha, postemergence, scale 0 to 100, 0 is no effect, 100 is complete control
  Plant response rating, Barley: 0
[1]; 62 g ai/ha, postemergence, 0 is no effect, 100 is complete control, 13 to 15 days
  Barley plant response rating (0 to 100 scale): 5
[1]; Postemergence, 125 g ai/ha, scale 0 to 100 (0 no effect, 100 complete control)
  Plant response rating, Barley: 5
[1]; Postemergence, 250 g ai/ha, scale 0 to 100 (0 no effect, 100 complete control)
  Plant response rating, Barley: 10
[2]; [12]
  Plant response rating, Crabgrass, Large: 80
[2]; [13]
  Plant response rating, Crabgrass, Large: 100
[2]; [14]
  Plant response rating, Crabgrass, Large: 90
[2]; [15]
  Plant response rating, Crabgrass, Large: 100
[3]; [12]
  Plant response rating, Velvetleaf: 100
[3]; [13]
  Plant response rating, Velvetleaf: 100
[3]; [14]
  Plant response rating, Velvetleaf: 80
[3]; [15]
  Plant response rating, Velvetleaf: 100
[4]; [12]
  Plant response rating, Morningglory: 100
[4]; [13]
  Plant response rating, Morningglory: 100
[4]; [14]
  Plant response rating, Morningglory: 0
[4]; [15]
  Plant response rating, Morningglory: 70
[5]; [12]
  Plant response rating, Foxtail, Giant: 90
[5]; [13]
  Plant response rating, Foxtail, Giant: 90
[5]; [14]
  Plant response rating, Foxtail, Giant: 80
[5]; [15]
  Plant response rating, Foxtail, Giant: 100
Corn (Zea mays); [12]
  Plant response rating, Corn: 0
Corn (Zea mays); [13]
  Plant response rating, Corn: 40
Corn (Zea mays); [14]
  Plant response rating, Corn: 0
Corn (Zea mays); [15]
  Plant response rating, Corn: 30
[6]; [12]
  Plant response rating, Barnyardgrass: 80
[6]; [13]
  Plant response rating, Barnyardgrass: 100
[6]; [14]
  Plant response rating, Barnyardgrass: 20
[6]; [15]
  Plant response rating, Barnyardgrass: 100
[7]; [12]
  Plant response rating, Wheat: 30
[7]; [13]
  Plant response rating, Wheat: 60
[7]; [14]
  Plant response rating, Wheat: 0
[7]; [15]
  Plant response rating, Wheat: 50
[8]; [12]
  Plant response rating, Pigweed: 100
[8]; [13]
  Plant response rating, Pigweed: 100
[8]; [14]
  Plant response rating, Pigweed: 80
[8]; [15]
  Plant response rating, Pigweed: 100
[9]; [16]
  Plant response rating, Flood, Sedge, Umbrella: 70
[9]; [17]
  Plant response rating, Sedge, Umbrella: 30
[10]; [16]
  Plant response rating, Flood, Ducksalad: 80
[10]; [17]
  Plant response rating, Ducksalad: 45
[11]; [16]
  Plant response rating, Flood, Barnyardgrass: 70
[11]; [17]
  Plant response rating, Barnyardgrass: 30
Rice (Oryza sativa); [16]
  Plant response rating, Flood, Rice: 55
Rice (Oryza sativa); [17]
  Plant response rating, Rice: 0

— patent US8952024B2, “Herbicidal pyrimidone derivatives” (E I du Pont de Nemours and Company, priority 2009, dated 2015)
